Results taken from patent US11246844B2, “Methods for inhibiting conversion of choline to trimethylamine (TMA)” (The Procter & Gamble Company, priority 2016, dated 2022).
Where a name gives a salt, the structure may show the parent alone. Read-outs that look alike come from different tables or passages of the source.

Columns and labels:
[1] = system: plasma TMAO; experiment: Preclinical screening method: plasma TMAO in mice on 1% Choline Added diet (Example 3); format: in vivo, mice (C57bl/6); conditions: Mus musculus, read-out: Remaining plasma TMAO as percentage of plasma TMAO in same day vehicle control (% of control remaining)
Experimental: Starting at day 0, mice (C57bl/6, ˜19 g, 10 wk of age; n=5/group) were maintained in accordance with the NIH guidelines in a 12:12 hr light:dark cycle and provided with 1% Choline Added diet (Envigo custom formulation prepared, similar to Teklad Global Rodent Diet 2018) ad libitum. Concurrent with introduction of the diet mice were gavaged once daily orally using a 1.5″ 22G ball-tip curved feeding needle to administer compound in 200 μl or less of water at one or multiple of the dose 0, 1.0, 3.1, 10, 31, 100 or 310 mg/kg/day. Urine was collected once daily in the morning. Animals were restrained by hand and bladder was expressed by gentle palpation of the pelvic region. Aliquots of 1-5 μl of urine were centrifuged at 1,300×g for 5 min in a 1.5 mL conical bottom tube with a snap top, to precipitate any potential cellular debris, and supernatants were transferred to a clean screw-cap tube with o-ring seal and stored at −80° C. until analysis. Sixty microliters or less of blood was collected at 20 hours post gavage, into a heparinized capillary tube. Blood was kept at 4° C., then spun using a centrifuge (5 min in centrifuge designed to capillary tubes) to separate plasma and hematocrit within 4 hours after collection. Plasma samples were stored at −80° C.
For measurement of TMA in plasma, samples were acidified (10 mM HCl final) prior to storage at −80° C. TMAO and trimethylamine (TMA) and their d9-isotopologues were quantified using stable isotope dilution HPLC with on-line electrospray ionization tandem mass spectrometry ([…]) methods as described in (Wang Z, Klipfell E, Bennett B J, et al. (2011) Gut flora metabolism of phosphatidylcholine promotes cardiovascular disease. Nature 472:57-63) using d4(1,1,2,2)-choline, d3(methyl)-TMAO, and d3(methyl)-TMA as internal standards. Concentrations of TMAO in urine were adjusted for urinary dilution by analysis of urine creatinine concentration. Samples were taken at different days during the studies and different doses were administered to avoid side effects at higher doses of some of the compounds.

[2] = system: Pseudomonas aeruginosa; conditions: growth on glycine betaine and dimethyl glycine; cited from earlier work
[3] = system: Proteus mirabilis 29906 (Pm) lysate; experiment: Inhibition of conversion of choline to TMA in Proteus mirabilis lysate (Example 2); format: biochemical; conditions: read-out: TMA Inhibition (IC50, mol/L)
[4] = 24 h, mice, oral gavage once daily, 310 mg/kg/day, day 1, blood 20 hours post gavage
[5] = 72 h, mice, oral gavage once daily, 310 mg/kg/day, day 3, blood 20 hours post gavage
[6] = Pm lysate 1.5 mg/mL protein, 50 μM d9-choline chloride, 37° C., two hours, d9-TMA by LC-MS/MS

Row | SMILES | IC50 [3, 6] | further results
1 | C#CC[N+](C)(C)CC(=O)O | – | response vs control in vivo at 100 mg/kg/day ([1]; 72 h, mice, oral gavage once daily, 100 mg/kg/day, day 3, blood 20 hours post gavage): 6.06%
2 | C#CC[N+](C)(C)CC(=C)C(=O)OC [2-(methoxycarbonyl)-N,N-dimethyl-N-(prop-2-yn-1-yl)prop-2-en-1-aminium bromide] | – | response vs control in vivo at 310 mg/kg/day [1, 4]: 69%
3 | C#CC[N+](C)(C)CC(=C)C#N [2-cyano-N,N-dimethyl-N-(prop-2-yn-1-yl)prop-2-en-1-aminium bromide] | – | response vs control in vivo at 310 mg/kg/day [1, 4]: 46.2%
4 | C#CC[N+](C)(C)CCCCC(=O)O [4-carboxy-N,N-dimethyl-N-(prop-2-yn-1-yl)butan-1-aminium bromide] | – | response vs control in vivo at 310 mg/kg/day [1, 4]: 64.4%
5 | C#CC[N+](C)(C)CCO [ID 21, N-(2-hydroxyethyl)-N,N-dimethyl-2-propyn-1-aminium bromide] | – | response vs control in vivo at 310 mg/kg/day [1, 5]: 0.94%; Growth of P. aeruginosa on GB and DMG [2]: inhibited
6 | C#CC[N+](C)(C)C [ID 33, trimethyl(prop-2-ynyl)ammonium iodide] | – | response vs control in vivo at 310 mg/kg/day ([1]; po, 72 h): 0.41%
7 | C#CC[N+](C)(C)CCl [ID 40, chloromethyl-dimethyl-prop-2-ynyl-ammonium iodide] | – | response vs control in vivo at 310 mg/kg/day ([1]; po, 24 h): 0.43%
8 | C#CC[N+](C)(C)CBr [ID 41, bromomethyl-dimethyl-prop-2-ynyl-ammonium bromide] | – | response vs control in vivo at 310 mg/kg/day [1, 5]: 0.23%
9 | C#CC[N+](C)(C)CI [ID 42, iodomethyl-dimethyl-prop-2-ynyl-ammonium iodide] | – | response vs control in vivo at 310 mg/kg/day [1, 5]: 0.1%
10 | C#CC[N+](C)(C)CC(=C)C(=O)OC [compound 1, 2-(methoxycarbonyl)-N,N-dimethyl-N-(prop-2-yn-1-yl)prop-2-en-1-aminium] | 13.2 nM | –
11 | C#CC[N+](C)(C)CCCCC(=O)O [compound 2, 4-carboxy-N,N-dimethyl-N-(prop-2-yn-1-yl)butan-1-aminium] | 110 nM | –
12 | COC(C[N+](C)(C)CCO)OC [compound 3, N-(2-hydroxyethyl)-2,2-dimethoxy-N,N-dimethylethan-1-aminium] | 2400 nM | –
13 | C#CC[N+](C)(C)CC(OC)OC [compound 4, N-(2,2-dimethoxyethyl)-N,N-dimethylprop-2-yn-1-aminium] | 525 nM | –
14 | C#CC[N+](C)(C)CC(O)O [compound 5, N-(2,2-dihydroxyethyl)-N,N-dimethylprop-2-yn-1-aminium] | 5310 nM | –
15 | C#CC[N+](C)(C)CC(OCC)OCC [compound 6, N-(2,2-diethoxyethyl)-N,N-dimethylprop-2-yn-1-aminium] | 88200 nM | –
16 | C#CC[N+](C)(C)CCCCCC(=O)O [compound 7, 5-carboxy-N,N-dimethyl-N-(prop-2-yn-1-yl)pentan-1-aminium] | 216 nM | –
17 | C#CC[N+](C)(C)CC(=C)C(=O)O [compound 8, 2-carboxy-N,N-dimethyl-N-(prop-2-yn-1-yl)prop-2-en-1-aminium bromide] | 76.4 nM | –
18 | C#CC[N+](C)(C)CC(N)=O [compound 9, N-(2-amino-2-oxoethyl)-N,N-dimethylprop-2-yn-1-aminium] | 130 nM | –
19 | C=C(C[N+](C)(C)CCO)C(=O)O [compound 10, 2-carboxy-N-(2-hydroxyethyl)-N,N-dimethylprop-2-en-1-aminium] | 15500 nM | –
20 | C=C(C#N)C[N+](C)(C)CCO [compound 11, 2-cyano-N-(2-hydroxyethyl)-N,N-dimethylprop-2-en-1-aminium] | 63.1 nM | –
21 | C#CC[N+](C)(C)CC(=C)C#N [compound 12, 2-cyano-N,N-dimethyl-N-(prop-2-yn-1-yl)prop-2-en-1-aminium] | 4.74 nM | –
22 | C#CC[N+](C)(C)CC(=O)C(=O)OC [compound 13, N-(3-methoxy-2,3-dioxopropyl)-N,N-dimethylprop-2-yn-1-aminium] | 63.1 nM | –
23 | C=C(C#N)C[N+]1(C)C2CCCC1CC2 (centres unmarked) [compound 14, 8-(2-cyanoallyl)-8-methyl-8-azabicyclo[3.2.1]octan-8-ium] | 44600 nM | –
24 | C#CC[N+](C)(C)CCN [compound 15, 2-aminoethyl-dimethyl-prop-2-ynyl-ammonium, hydrochloride] | 3010 nM | –
25 | C#CCC[N+](C)(C)CCO [compound 16, N-(2-hydroxyethyl)-N,N-dimethylbut-3-yn-1-aminium] | 15700 nM | –
26 | C#CC[N+]1(C)CCC(O)CC1 (centres unmarked) [compound 17, 4-hydroxy-1-methyl-1-(prop-2-yn-1-yl)piperidin-1-ium] | 124000 nM | –

Row | SMILES | IC50 [3, 6] | further results
27 | C#CC[N+]1(C)C2CCCC1CC2 (centres unmarked) [compound 18, 8-methyl-8-(prop-2-yn-1-yl)-8-azabicyclo[3.2.1]octan-8-ium] | 1610 nM | –
28 | C#CC[N+](C)(C)CC(=O)O [compound 19, N-(carboxymethyl)-N,N-dimethylprop-2-yn-1-aminium] | 21.6 nM | –
29 | C#CC[N+](C)(C)CC(=O)OC [compound 20, N-(2-methoxy-2-oxoethyl)-N,N-dimethylprop-2-yn-1-aminium] | 44.1 nM | –
30 | C#CC[N+](C)(C)CCO [compound 21, N-(2-hydroxyethyl)-N,N-dimethyl-2-propyn-1-aminium] | 30.4 nM | –
31 | CC#CC[N+](C)(C)CCO [compound 22, N-(2-hydroxyethyl)-N,N-dimethyl-2-butyn-1-aminium] | 152 nM | –
32 | C=CC[N+](C)(C)CC=C [compound 23, N,N-dimethyl-N-2-propenyl-2-propen-1-aminium] | 3030 nM | –
33 | C[N+](C)(CCO)CC1CO1 (centres unmarked) [compound 24, 2-hydroxy-N,N-dimethyl-N-(oxiran-2-ylmethyl)ethan-1-aminium] | 1940 nM | –
34 | C=CC[N+](C)(C)CCO [compound 25] | 6710 nM | –
35 | C#CC[N+](CC#C)(CC#C)CCO [compound 26, N-(2-hydroxyethyl)-N,N-di(prop-2-yn-1-yl)prop-2-yn-1-aminium] | 31700 nM | –
36 | C=CC(=O)OCC[N+](C)(C)C [compound 27, 2-(acryloyloxy)-N,N,N-trimethylethan-1-aminium] | – | IC50 [3]: 68700 nM
37 | C#CC[N+](C)(C)CCCO [compound 28, N-(3-hydroxypropyl)-N,N-dimethylprop-2-yn-1-aminium] | 117000 nM | –
38 | C[N+](C)(CC#N)CCO [compound 29, N-(cyanomethyl)-2-hydroxy-N,N-dimethylethan-1-aminium] | 335000 nM | –
39 | C=CC[N+](CC=C)(CC=C)CC=C [compound 30, N,N,N-tri(prop-2-en-1-yl)prop-2-en-1-aminium] | 694000 nM | –
40 | C#CC[N+](C)(C)CC(=O)O [compound 31] | 1810 nM | –
41 | C/C=C/C[N+](C)(C)CCO [compound 32, [(E)-but-2-enyl]-(2-hydroxyethyl)-dimethyl-ammonium] | 899 nM | –
42 | C#CC[N+](C)(C)C [compound 33] | 0.115 nM | –
43 | C#CC[N+](C)(C)CC#C [compound 34, dimethyl-bis(prop-2-ynyl)ammonium] | 2.65 nM | –
44 | C=CC[N+](C)(C)CC#N [compound 35, allyl-(cyanomethyl)-dimethyl-ammonium] | 64.4 nM | –
45 | C#CC[N+](C)(C)CC#N [compound 36, cyanomethyl-dimethyl-prop-2-ynyl-ammonium] | 279 nM | –
46 | C=CC[N+](C)(C)C [compound 37] | 50000 nM | –
47 | C#CC[N+](C)(CC#C)CC#C [compound 38, methyl-tris(prop-2-ynyl)ammonium] | 81000 nM | –
48 | C#CC[N+](CC#C)(CC#C)CC#C [compound 39, tetrakis(prop-2-ynyl)ammonium] | 87900 nM | –
49 | C#CC[N+](C)(C)CCl [compound 40, chloromethyl-dimethyl-prop-2-ynyl-ammonium] | 0.0164 nM | –
50 | C#CC[N+](C)(C)CBr [compound 41, bromomethyl-dimethyl-prop-2-ynyl-ammonium] | 0.235 nM | –
51 | C#CC[N+](C)(C)CI [compound 42, iodomethyl-dimethyl-prop-2-ynyl-ammonium] | 0.463 nM | –
52 | C#CC[N+](C)(C)CCBr [compound 43, 2-bromoethyl-dimethyl-prop-2-ynyl-ammonium] | 140 nM | –
